How the values were obtained:
Bst DNA polymerase = biological target: T1, Bst DNA polymerase (Geobacillus stearothermophilus, UniProt P52026); test: Single nucleotide extension of 6-mer primers at varying dNTP concentration; format: biochemical; conditions: for extension efficiency of 6-mer primer compared with natural dNTP: dNTP 0.5 microM to 130 microM, 45° C., 8 hours
T1 construct: purchased New England Biolabs
T1 sequence (P52026 290-876 limits assumed): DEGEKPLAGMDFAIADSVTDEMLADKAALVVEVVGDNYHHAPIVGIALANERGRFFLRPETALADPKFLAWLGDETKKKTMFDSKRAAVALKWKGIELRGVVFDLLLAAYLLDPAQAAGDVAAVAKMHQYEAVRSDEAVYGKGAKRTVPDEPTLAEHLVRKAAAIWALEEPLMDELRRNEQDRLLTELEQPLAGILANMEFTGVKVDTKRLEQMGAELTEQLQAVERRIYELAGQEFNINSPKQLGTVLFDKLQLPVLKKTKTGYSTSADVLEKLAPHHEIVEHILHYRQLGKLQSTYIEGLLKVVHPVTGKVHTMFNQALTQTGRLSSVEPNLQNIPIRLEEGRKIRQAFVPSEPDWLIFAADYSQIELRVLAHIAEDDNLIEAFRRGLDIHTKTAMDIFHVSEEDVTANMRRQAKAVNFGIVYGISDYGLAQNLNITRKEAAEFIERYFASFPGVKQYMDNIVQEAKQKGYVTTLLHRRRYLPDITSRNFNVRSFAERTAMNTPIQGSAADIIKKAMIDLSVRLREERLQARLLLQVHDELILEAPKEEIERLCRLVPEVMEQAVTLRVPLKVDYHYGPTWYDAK
Experimental: To further assess the incorporation efficiency of the modified nucleotides by Bst DNA polymerase, the efficiency for a single nucleotide extension reaction was determined using two 6-mer primers in the presence of varying concentrations of dATP, 2-amino-2′-deoxyadenosine-5′-triphosphate, dTTP or 2-thiothymidine-5′-triphosphate (illustrated as 2-thioTTP) (FIGS. 3A and 4A). For this study, the reaction mixtures contained: 20 mM Tris-Cl (pH 8.8 @ 25° C.), 10 mM KCl, 10 mM (NH4)2SO4, 2 mM MgSO4, 0.1% Triton-X100, 500 nanoM 6-mer primer, 20 nanoM 30-mer DNA template, 0.8 units/microL (˜70 nanoM) Bst DNA polymerase and a dNTP concentration ranging from 0.5 microM to 130 microM. The reaction mixtures were incubated at 45° C. for 8 hours and separated by electrophoresis on 20% denaturing (7M urea) polyacrylamide gels.

[1] = system: Bst DNA polymerase, Taq DNA polymerase, MMLV-RT; test: Polymerase extension of 32P-labeled 12-mer primer on synthetic 30-mer template to full-length product; format: biochemical; conditions: all three polymerases
Experimental: The ability of the Bacillus sterothermophilus (Bst) DNA polymerase (New England Biolabs), the Thermus aquaticus (Taq) DNA polymerase (Amersham) and the Moloney Murine Leukemia Virus reverse transcriptase (MMLV-RT) (Amersham) to incorporate the 2-amino-2′-deoxyadenosine-5′-triphosphate and 2-thiothymidine-5′-triphosphate into polynucleotides was tested using a synthetic 30-mer template and ^32P-labeled 12-mer primer (S.A. 130 Ci/mmol). (FIG. 2A). Extension reactions for each polymerase were performed in 0.65 ml pre-siliconized microfuge tubes containing the following components: (Bst) 20 mM Tris-Cl (pH 8.8 @ 25° C.), 10 mM KCl, 10 mM (NH4)2SO4, 2 mM MgSO4, 0.1% Triton-X100, 0.5 microM primer/template, 250 microM each dNTP and 0.15 units/microL Bst DNA polymerase; (Taq) 26 mM Tris-Cl (pH 9.5 @25° C.), 6.5 mM MgCl2, 0.5 microM primer/template, 250 microM each dNTP and 0.15 units/microL Taq DNA polymerase; (MMLV-RT) 50 mM Tris-Cl (pH 8.3 @ 25° C.) 75 mM KCl, 3 mM MgCl2, […], 0.5 microM primer/template, 250 microM each dNTP and 0.5 units/microL MMLV-RT. The reactions were incubated for 15 minutes at 65° C. for the Bst and Taq reactions and 42° C. for the MMLV-RT reaction. The reaction mixtures were separated by electrophoresis on 10% denaturing (7M urea) polyacrylamide gels and visualized by phosphorimaging methods.

| Structure (SMILES) | extension efficiency of 6-mer primer compared with natural dNTP (Bst DNA polymerase) | full-length product when both analogues are substituted for A and T in a single reaction mixture [1] | EC50 (Bst DNA polymerase) [µM] |
| --- | --- | --- | --- |
| Nc1nc(N)c2ncn([C@H]3C[C@H](O)[C@@H](COP(=O)(O)OP(=O)(O)OP(=O)(O)O)O3)c2n1 [2-amino-2′-deoxyadenosine-5′-triphosphate] | approximately equal efficiencies | full-length product was generated |  |
| Cc1cn([C@H]2C[C@H](O)[C@@H](COP(=O)(O)OP(=O)(O)OP(=O)(O)O)O2)c(=S)[nH]c1=O [2-thiothymidine-5′-triphosphate] | very similar | full-length product was generated | ~6 |

— US20040086880A1, “Method of producing nucleic acid molecules with reduced secondary structure” (priority 1999, published 2004)
